Where a name gives a salt, the structure may show the parent alone.
Molecular target: T1, Na^+ /H^+ exchanger of rabbit erythrocytes (Oryctolagus cuniculus, UniProt P23791)
T1 construct: endogenous in cells; host or cells: erythrocytes in whole blood of cholesterol-fed White New Zealand rabbits (Ivanovas)
Assay: Inhibition of the Na+/H+ exchanger of rabbit erythrocytes (amiloride-sensitive sodium influx, flame photometry)
Format: cell-based, rabbit (White New Zealand)
Details: hyperosmolar salt/sucrose medium, pH 7.4, 37° C.
From the text: Inhibition of the Na^+ /H^+ exchanger of rabbit erythrocytes White New Zealand rabbits (Ivanovas) received a standard diet containing 2% cholesterol for six weeks in order to activate Na^+ /H^+ exchange and thus to make it possible to determine the Na^+ influx into the erythrocytes via Na^+ /H^+ exchange by flame photometry. The blood was taken from the arteries of the ear and anticoagulated with 25 IU of potassium heparin. Part of each sample was used for duplicate determination of the hematocrit by centrifugation. Aliquots each of 100 μl were used to measure the Na^+ content of the erythrocytes.
In order to determine the amiloride-sensitive sodium influx, 100 μl of each blood sample were incubated in each case in 5 ml of a hyperosmolar salt/sucrose medium (mmol/l: 140 NaCl, 3 KCl, 150 sucrose, 0.1 ouabain, 20 trishydroxymethylaminomethane) at pH 7.4 and 37° C. The erythrocytes were then washed three times with ice-cold MgCl2 /ouabain solution (mmol/l: 112 MgCl2, 0.1 ouabain) and hemolyzed in 2.0 ml of distilled water. The intracellular sodium content was determined by flame photometry.
The net Na^+ influx was calculated from the difference between the initial sodium levels and the sodium content of the erythrocytes after incubation. […]

T1 sequence (P23791 whole entry): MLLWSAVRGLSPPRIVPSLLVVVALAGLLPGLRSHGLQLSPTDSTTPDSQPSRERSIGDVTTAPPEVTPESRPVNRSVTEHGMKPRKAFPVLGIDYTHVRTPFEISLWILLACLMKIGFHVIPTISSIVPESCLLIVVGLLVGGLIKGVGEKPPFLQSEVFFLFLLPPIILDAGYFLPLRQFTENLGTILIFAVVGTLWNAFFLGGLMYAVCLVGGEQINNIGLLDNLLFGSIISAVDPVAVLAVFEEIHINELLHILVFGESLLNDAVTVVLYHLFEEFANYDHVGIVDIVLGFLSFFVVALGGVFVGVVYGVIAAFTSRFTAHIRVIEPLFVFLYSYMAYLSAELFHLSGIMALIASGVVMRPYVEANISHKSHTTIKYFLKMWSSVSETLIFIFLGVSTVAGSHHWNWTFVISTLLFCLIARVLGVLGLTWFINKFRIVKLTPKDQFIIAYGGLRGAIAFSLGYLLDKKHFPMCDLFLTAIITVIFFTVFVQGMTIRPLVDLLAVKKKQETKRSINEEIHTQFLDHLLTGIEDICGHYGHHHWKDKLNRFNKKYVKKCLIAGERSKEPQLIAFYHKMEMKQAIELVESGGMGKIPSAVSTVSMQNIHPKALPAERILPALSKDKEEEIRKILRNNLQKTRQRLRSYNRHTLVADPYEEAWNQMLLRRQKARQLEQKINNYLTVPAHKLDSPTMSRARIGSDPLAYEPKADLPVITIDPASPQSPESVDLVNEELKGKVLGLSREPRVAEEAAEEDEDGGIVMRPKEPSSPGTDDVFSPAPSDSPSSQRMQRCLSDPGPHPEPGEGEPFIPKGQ

Row | Compound | IC50 [nM]
1 | CC(C)c1ccc(C(=O)N=C(N)N)cc1NS(C)(=O)=O [Example 1, 4-Isopropyl-3-methylsulfonylaminobenzoylguanidine, hydrochloride] | 300
2 | CS(=O)(=O)Nc1cc(C(=O)N=C(N)N)ccc1Oc1cccnc1 [Example 2, 3-Methylsulfonylamino-4--(3-pyridyloxy)benzoylguanidine] | 740

Reference: US5856344A, “Sulfonylamino-substituted benzoylguanidines, a process for their preparation, their use as a medicament or diagnostic aid, and medicament containing them” (Hoechst Aktiengesellschaft, priority 1995, dated 1999)
